# Molecular target: T1, human SGLT2 (Homo sapiens, UniProt P31639)
# T1 construct: expressed in transfected cells
# T1 sequence (P31639 1-672): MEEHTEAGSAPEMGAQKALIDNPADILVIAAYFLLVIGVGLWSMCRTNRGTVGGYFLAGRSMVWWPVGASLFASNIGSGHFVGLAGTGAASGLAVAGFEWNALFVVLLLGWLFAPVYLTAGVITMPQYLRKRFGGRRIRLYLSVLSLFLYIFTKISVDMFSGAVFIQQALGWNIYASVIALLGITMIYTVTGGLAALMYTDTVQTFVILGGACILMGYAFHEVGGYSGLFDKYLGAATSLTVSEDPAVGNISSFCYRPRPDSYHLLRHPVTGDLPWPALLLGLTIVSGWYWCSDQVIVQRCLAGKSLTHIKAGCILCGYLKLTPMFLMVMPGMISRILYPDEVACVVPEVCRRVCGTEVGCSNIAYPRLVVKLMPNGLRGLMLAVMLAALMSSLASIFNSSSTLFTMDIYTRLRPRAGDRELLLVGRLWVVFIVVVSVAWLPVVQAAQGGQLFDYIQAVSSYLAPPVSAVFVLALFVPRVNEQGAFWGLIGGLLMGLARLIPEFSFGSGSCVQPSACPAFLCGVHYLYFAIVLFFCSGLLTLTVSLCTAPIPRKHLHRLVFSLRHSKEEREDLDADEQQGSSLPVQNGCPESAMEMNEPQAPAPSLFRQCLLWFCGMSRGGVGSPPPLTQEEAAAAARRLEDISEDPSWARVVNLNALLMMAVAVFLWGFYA
# Assay: Determination of SGLT2 inhibiting activity using human SGLT2 expressing cell ([14C]-α-methyl-D-glucopyranoside uptake)
# Assay type: cell-based
# Conditions: HEK-SGLT2 cells, 1 mM [14C]-α-methyl-D-glucopyranoside, 37° C., 30 min
# Procedure: Determination of SGLT2 Inhibiting Activity Using Human SGLT2 Expressing Cell
# 1) Preparation of Vector Expressing Human SGLT2 cDNA in Animal Cell
# Amplification was performed by PCR using human SGLT2 cDNA clone (Origene: Clone Number, TC303267; GenBank accession number, NM 003041) as a template. The sense oligonucleotide primer for PCR was 5′-[…]-3′ (Primer 3: SEQ ID NO: 3 in the sequence listing),
# and the antisense oligonucleotide primer was 5′-[…]-3′ (Primer 4: SEQ ID NO: 4 in the sequence listing). The PCR product was subjected to agarose electrophoresis, then a target DNA fragment was recovered from a single band corresponding to 2037 bases, digested with restriction enzymes HindIII and XhoI, and introduced into the HindIII/XhoI site of vector pCMV-Script (Stratagene) to obtain SGLT2 expressing plasmid pCMV-SGLT2. A HindIII/XhoI fragment was excised from pCMV-SGLT2 and introduced into the BamHI/XhoI site of pENTR1A (Gateway, Invitrogen) to prepare pENTR-SGLT2. Retrovirus vector pLPCX (Clontech) into which Gateway Vector Conversion System Cassette A (Invitrogen) was introduced was used as the destination plasmid to prepare SGLT2 expressing retrovirus vector pLPCX-SGLT2.
# 2) Establishment of Human SGLT2 Expressing Cell
# The retrovirus pLPCX-SGLT2 obtained in 1) was transfected into integrin αvβ3 expressing HEK-293 cells, the cells were treated with antibiotic G418 (brand name, Geneticin: Invitrogen) and puromycin (Clontech) to obtain HEK-SGLT2 cells stably expressing the target vector having resistance. The stably expressing cells were cultured and maintained in DMEM medium containing […] G418, […] puromycin, 3 mM KGT-1075, and 10% FBS.
# 3) Determination of SGLT2 Inhibiting Activity
# HEK-SGLT2 cells were suspended at a density of 10^6 cells/mL in DMEM medium containing 250 mg/mil G418, 1 mg/ml puromycin, and 10% FBS, and 100 μL was seeded in each well of a type 1 collagen-coated 96-well culture plate (Corning). On the following day, the medium was replaced with a sugar uptake buffer (10 mM HEPES [pH 7.5], 5 mM Tris-HCl [pH 7.5], 140 mM NaCl, 2 mM KCl, 1 mM CaCl2, 1 mM MgCl2), and the cells were cultured with 1 mM [^14C]-α-methyl-D-glucopyranoside (0.1 mCi) and a test compound at 37° C. for 30 min, and then washed 3 times with a washing buffer (10 mM HEPES (pH 7.5), 5 mM Tris-HCl (pH 7.5), 140 mM choline chloride, 2 mM KCl, 1 mM CaCl2, 1 mM MgCl2). 100 μL of liquid scintillation cocktail (brand name, Supermix: Perkin-Elmer) was added to each well of the 96-well plate and stirred for 10 min, and then radioactivity was determined with micro β (Perkin-Elmer), a type of liquid scintillation counter. The value obtained by deducting the radioactivity in the presence of an excess amount of an SGLT2 inhibiting compound as the background from each measured value was taken as the sugar uptake activity, the inhibition rate (%) was calculated from the control sugar uptake activity obtained without using a test compound and the sugar uptake activity obtained using a test compound having a predetermined concentration, and the concentrations of the test compound at which the sugar uptake activity was inhibited by 50% were assessed.
row,SMILES,IC50
1,"COc1ccc(Cc2c(Cl)cc(CO)cc2O[C@@H]2O[C@H]([C@@H](C)O)[C@@H](O)[C@H](O)[C@H]2O)cc1 [Example 44, 3-Chloro-5-hydroxymethyl-2-(4-methoxybenzyl)phenyl 7-deoxy-D-glycero-β-D-gluco-heptopyranoside]",10 nM
2,"COc1ccc(Cc2c(Cl)cc(CO)cc2O[C@@H]2O[C@H]([C@H](C)O)[C@@H](O)[C@H](O)[C@H]2O)cc1 [Example 57, 3-Chloro-5-hydroxymethyl-2-(4-methoxybenzyl)phenyl 7-deoxy-L-glycero-β-D-gluco-heptopyranoside]",11 nM
3,"Cc1ccc(Cc2ccc(CO)cc2O[C@@H]2O[C@H]([C@@H](C)O)[C@@H](O)[C@H](O)[C@H]2O)cc1 [Example 98, 5-Hydroxymethyl-2-(4-methylbenzyl)phenyl 7-deoxy-D-glycero-β-D-gluco-heptapyranoside]",17 nM
4,"COc1ccc(Cc2c(Cl)cccc2O[C@@H]2O[C@H]([C@@H](C)O)[C@@H](O)[C@H](O)[C@H]2O)cc1 [Example 42, 3-Chloro-2-(4-methoxybenzyl)phenyl 7-deoxy-D-glycero-β-D-gluco-heptopyranoside]",18 nM
5,"CCc1ccc(Cc2c(F)cc(CO)cc2O[C@@H]2O[C@H]([C@@H](C)O)[C@@H](O)[C@H](O)[C@H]2O)cc1 [Example 47, 2-(4-Ethylbenzyl)-3-fluoro-5-hydroxymethyl-phenyl 7-deoxy-D-glycero-β-D-gluco-heptopyranoside]",38 nM
6,"Cc1ccc(Cc2c(F)cc(CO)cc2O[C@@H]2O[C@H]([C@@H](C)O)[C@@H](O)[C@H](O)[C@H]2O)cc1 [Example 97, 3-Fluoro-5-hydroxymethyl-2-(4-methylbenzyl)phenyl 7-deoxy-D-glycero-β-D-gluco-heptopyranoside]",11 nM
7,"CCc1ccc(Cc2c(C)cc(CO)cc2O[C@@H]2O[C@H]([C@@H](C)O)[C@@H](O)[C@H](O)[C@H]2O)cc1 [Example 89, 2-(4-Ethylbenzyl)-5-hydroxymethyl-3-methylphenyl 7-deoxy-D-glycero-β-D-gluco-heptopyranoside]",35 nM
8,"CCOc1ccc(Cc2ccc(CO)cc2O[C@@H]2O[C@H]([C@@H](C)O)[C@@H](O)[C@H](O)[C@H]2O)cc1 [Example 93, 2-(4-Ethoxybenzyl)-5-hydroxymethylphenyl 7-deoxy-D-glycero-β-D-gluco-heptapyranoside]",13 nM
9,"Cc1cc(C)c(Cc2ccc(CCO)cc2)c(O[C@@H]2O[C@H]([C@@H](C)O)[C@@H](O)[C@H](O)[C@H]2O)c1 [Example 70, 2-[4-(2-Hydroxyethyl)benzyl]-3,5-dimethylphenyl 7-deoxy-D-glycero-β-D-gluco-heptopyranoside]",40 nM
10,"C[C@@H](O)[C@H]1O[C@@H](Oc2cc(CO)ccc2Cc2ccc(C3CC3)cc2)[C@H](O)[C@@H](O)[C@@H]1O [Example 62, 2-(4-Cyclopropylbenzyl)-5-hydroxymethylphenyl 7-deoxy-D-glycero-β-D-gluco-heptopyranoside]",32 nM
11,"C=Cc1cc(CO)cc(O[C@@H]2O[C@H]([C@@H](C)O)[C@@H](O)[C@H](O)[C@H]2O)c1Cc1ccc(OC)cc1 [Example 101, 5-Hydroxymethyl-2-(4-methoxybenzyl)-3-vinyl-phenyl 7-deoxy-D-glycero-β-D-gluco-heptopyranoside]",136 nM
12,"COc1ccc(Cc2c(OC)cc(CO)cc2O[C@@H]2O[C@H]([C@@H](C)O)[C@@H](O)[C@H](O)[C@H]2O)cc1 [Example 83, 5-Hydroxymethyl-3-methoxy-2-(4-methoxybenzyl)phenyl 7-deoxy-D-glycero-β-D-gluco-heptopyranoside]",39 nM
13,"CCCOc1ccc(Cc2c(F)cc(CO)cc2O[C@@H]2O[C@H]([C@@H](C)O)[C@@H](O)[C@H](O)[C@H]2O)cc1 [Example 74, 3-Fluoro-5-hydroxymethyl-2-(4-propoxybenzyl)phenyl 7-deoxy-D-glycero-β-D-gluco-heptopyranoside]",47 nM
14,"COc1ccc(Cc2ccc(CO)cc2O[C@@H]2O[C@H]([C@@H](C)O)[C@@H](O)[C@H](O)[C@H]2O)c(F)c1 [Example 82, 2-(2-Fluoro-4-methoxybenzyl)-5-hydroxymethylphenyl 7-deoxy-D-glycero-β-D-gluco-heptopyranoside]",9.4 nM
15,"COc1ccc(Cc2c(Cl)cc(C)cc2O[C@@H]2O[C@H]([C@@H](C)O)[C@@H](O)[C@H](O)[C@H]2O)cc1 [Example 43, 3-Chloro-5-methyl-2-(4-methoxybenzyl)phenyl 7-deoxy-D-glycero-β-D-gluco-heptopyranoside]",61 nM
16,"CCOc1ccc(Cc2c(Cl)cc(CO)cc2O[C@@H]2O[C@H]([C@@H](C)O)[C@@H](O)[C@H](O)[C@H]2O)cc1 [Example 45, 3-Chloro-2-(4-ethoxybenzyl)-5-hydroxymethyl-phenyl 7-deoxy-D-glycero-β-D-gluco-heptopyranoside]",45 nM
17,"C[C@@H](O)[C@H]1O[C@@H](Oc2cc(CO)cc(Cl)c2Cc2ccc(OC3CC3)cc2)[C@H](O)[C@@H](O)[C@@H]1O [Example 95, 3-Chloro-2-(4-cyclopropoxybenzyl)-5-hydroxymethyl-phenyl 7-deoxy-D-glycero-β-D-gluco-heptopyranoside]",49 nM
18,"COc1ccc(Cc2ccc(CO)cc2O[C@@H]2O[C@H]([C@@H](C)O)[C@@H](O)[C@H](O)[C@H]2O)cc1F [Example 78, 2-(3-Fluoro-4-methoxybenzyl)-5-hydroxymethylphenyl 7-deoxy-D-glycero-β-D-gluco-heptopyranoside]",11 nM
19,"C[C@@H](O)[C@H]1O[C@@H](Oc2cc(CO)ccc2Cc2ccc(OC3CC3)cc2)[C@H](O)[C@@H](O)[C@@H]1O [Example 60, 2-(4-Cyclopropyloxybenzyl)-5-hydroxymethylphenyl 7-deoxy-D-glycero-β-D-gluco-heptopyranoside]",12 nM
20,"CCc1ccc(Cc2ccc(CCO)cc2O[C@@H]2O[C@H]([C@@H](C)O)[C@@H](O)[C@H](O)[C@H]2O)cc1 [Example 67, 2-(4-Ethylbenzyl)-5-(2-hydroxyethyl)phenyl 7-deoxy-D-glycero-β-D-gluco-heptopyranoside]",30 nM
21,"CSc1ccc(Cc2ccc(CO)cc2O[C@@H]2O[C@H]([C@@H](C)O)[C@@H](O)[C@H](O)[C@H]2O)cc1 [Example 66, 5-Hydroxymethyl-2-(4-methylsulfanylbenzyl)phenyl 7-deoxy-D-glycero-β-D-gluco-heptopyranoside]",23 nM
22,"CCOc1ccc(Cc2c(F)cc(CO)cc2O[C@@H]2O[C@H]([C@@H](C)O)[C@@H](O)[C@H](O)[C@H]2O)cc1 [Example 46, 2-(4-Ethoxybenzyl)-3-fluoro-5-hydroxymethyl-phenyl 7-deoxy-D-glycero-β-D-gluco-heptopyranoside]",16 nM
23,"COc1ccc(Cc2c(C)cc(CO)cc2O[C@@H]2O[C@H]([C@@H](C)O)[C@@H](O)[C@H](O)[C@H]2O)cc1 [Example 94, 5-Hydroxymethyl-2-(4-methoxybenzyl)-3-methylphenyl 7-deoxy-D-glycero-β-D-gluco-heptopyranoside]",11 nM
